In patent US9090593B2, “Bicyclic compounds as Pim inhibitors” (AMGEN INC., priority 2010, dated 2015):

How the values were obtained:
Type in all cases: biochemical
[1] = biological target: T1, full length recombinant Pim-1 protein (Homo sapiens, UniProt P11309); assay: Pim-1 enzyme assay (HTRF, phosphorylation of biotinylated-BAD (S112) peptide); settings: enzyme assay, Pim-1; read-out: Pim_1_IC50
T1 construct: by full length recombinant Pim-1, Pim-2, or Pim-3 protein; hexahistidine tag followed by a thrombin cleavage site (N); made in house; host or cells: Sf9 (baculovirus) or E. coli (pET28)
Method in brief: (§1)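 Full-length His-tagged Pim-1 or Pim-2 (Sf9 or E. coli expressed, purified) phosphorylated biotinylated BAD (S112) peptide in 60 mM Hepes pH 7.0, 0.05% BSA, 2 mM DTT. Reaction stopped with 3 mM EDTA; phospho-BAD read by HTRF with Eu anti-phospho-BAD antibody and streptavidin-APC. IC50 from percent of control by 4-parameter logistic fit.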

[2] = biological target: T2, full length recombinant Pim-2 protein (Homo sapiens, UniProt Q9P1W9); assay: Pim-2 enzyme assay (HTRF, phosphorylation of biotinylated-BAD (S112) peptide); settings: enzyme assay, Pim-2; read-out: Pim2_IC50
T2 construct: by full length recombinant Pim-1, Pim-2, or Pim-3 protein; hexahistidine tag followed by a thrombin cleavage site (N); made in house; host or cells: Sf9 (baculovirus) or E. coli (pET28)
Method in brief: as §1

[3] = biological target: T3, full length recombinant Pim-3 protein (Homo sapiens, UniProt Q86V86); assay: Pim-3 enzyme assay (HTRF, phosphorylation of biotinylated-BAD (S112) peptide); settings: read-out: Pim3 IC50
T3 construct: by full length recombinant Pim-1, Pim-2, or Pim-3 protein; purchased Millipore (UK)
Description: Pim-3 was purchased from Millipore (UK).
The phosphorylation of biotinylated-BAD (S112) peptide by full length recombinant Pim-1, Pim-2, or Pim-3 protein was detected with streptavidin:Allophycocyanin (APC) conjugate and a europium (Eu) labeled antibody directed against phosphorylated-BAD (S112). […] The fluorescence is directly proportional to the amount of phosphorylated BAD peptide present in the reaction.
A reference compound was included on each assay plate in order to validate that plate; on one plate of every assay run, two additional reference compounds were included.
The final buffer conditions were as follows: 60 mM Hepes, pH 7.0, 0.05% BSA, 2 mM DTT. […] The reaction was stopped by the addition of 3 mM EDTA, and fluorescence was measured by an HTRF® Rubystar microplate reader. For each plate, percent of control (POC) values were calculated for each well. Values for the IC50 IP were estimated using a standard 4-parameter logistic model.

T2 sequence (Q9P1W9 whole entry): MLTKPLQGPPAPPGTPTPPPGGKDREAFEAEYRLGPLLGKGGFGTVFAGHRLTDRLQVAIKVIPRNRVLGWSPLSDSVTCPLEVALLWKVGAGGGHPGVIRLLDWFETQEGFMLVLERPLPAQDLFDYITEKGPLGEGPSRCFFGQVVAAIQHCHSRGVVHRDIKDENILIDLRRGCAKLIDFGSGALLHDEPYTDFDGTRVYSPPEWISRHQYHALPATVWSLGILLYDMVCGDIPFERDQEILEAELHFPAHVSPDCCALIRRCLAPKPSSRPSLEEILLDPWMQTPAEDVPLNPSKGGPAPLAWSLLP
T1 sequence (P11309 whole entry): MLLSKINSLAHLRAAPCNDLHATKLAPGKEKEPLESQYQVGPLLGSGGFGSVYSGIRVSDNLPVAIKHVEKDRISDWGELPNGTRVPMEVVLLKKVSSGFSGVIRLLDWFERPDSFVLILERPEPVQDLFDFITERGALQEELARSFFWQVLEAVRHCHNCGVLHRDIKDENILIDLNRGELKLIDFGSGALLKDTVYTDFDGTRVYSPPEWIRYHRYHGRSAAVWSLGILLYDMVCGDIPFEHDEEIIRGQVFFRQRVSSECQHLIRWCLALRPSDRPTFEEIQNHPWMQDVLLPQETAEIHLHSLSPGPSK

Compound	IC50 [1] [µM]	IC50 [2] [µM]	IC50 [3] [µM]
Nc1ncc(-c2ccc3[nH]nc(-c4cncc(N5CCC(N)CC5)n4)c3c2)c(NC2CCCC2)n1 [Example 96, 5-(3-(6-(4-amino-1-piperidinyl)-2-pyrazinyl)-1H-indazol-5-yl)-N~4~-cyclopentyl-2,4-pyrimidinediamine]	0.848	> 1	1.12
O[C@H]1CCN(c2cncc(-c3n[nH]c4ccc(-c5c(F)cccc5F)cc34)n2)C1 [Example 175, (3S)-1-(6-(5-(2,6-difluorophenyl)-1H-indazol-3-yl)-2-pyrazinyl)-3-pyrrolidinol]	0.168	1.18	0.153
O=c1cc(-c2ccc3[nH]nc(-c4cncc(O[C@@H]5CCCNC5)n4)c3c2)c(Cl)c[nH]1 [Example 128, 5-chloro-4-(3-(6-((3R)-3-piperidinyloxy)-2-pyrazinyl)-1H-indazol-5-yl)-2(1H)-pyridinone]	0.031	0.059	0.03
CN(C)c1cncc(-c2n[nH]c3ccc(-c4c(F)cccc4F)cc23)n1 [Example 181, 6-(5-(2,6-difluorophenyl)-1H-indazol-3-yl)-N,N-dimethyl-2-pyrazinamine]	0.206	2.08	0.146
c1cc(C2CC2)cc(-c2ccc3[nH]nc(-c4cncc(O[C@@H]5CCCNC5)n4)c3c2)n1 [Example 141, 5-(4-cyclopropyl-2-pyridinyl)-3-(6-((3R)-3-piperidinyloxy)-2-pyrazinyl)-1H-indazole]	0.042	0.435	0.032
CNc1nccc(-c2n[nH]c3ccc(-c4c(F)cccc4F)cc23)n1 [Example 192, 4-(5-(2,6-difluorophenyl)-1H-indazol-3-yl)-N-methyl-2-pyrimidinamine]	0.147	1.25	0.175
NC1CCN(c2cncc(-c3c[nH]c4ccc(NC(=O)c5ccccc5)cc34)n2)CC1 [Example 235, N-(3-(6-(4-aminopiperidin-1-yl)pyrazin-2-yl)-1H-indol-5-yl)benzamide]	0.121	1.87	0.151
CC(C)Oc1cncc(-c2ccc3[nH]cc(-c4cc(N)ccn4)c3c2)n1 [Example 218, 2-(5-(6-(1-methylethoxy)-2-pyrazinyl)-1H-indol-3-yl)-4-pyridinamine]	0.805	> 3	0.317
NC1CCN(c2cncc(-c3n[nH]c4ccc(N5CCCCC5=O)cc34)n2)CC1 [Example 91, 1-(3-(6-(4-amino-1-piperidinyl)-2-pyrazinyl)-1H-indazol-5-yl)-2-piperidinone]	0.629	> 3	0.926
CC(C)(C)NC(=O)c1ccc(F)c(-c2ccc3[nH]nc(-c4cncc(O[C@@H]5CCCNC5)n4)c3c2)c1 [Example 116, N-tert-butyl-4-fluoro-3-(3-(6-((3R)-3-piperidinyloxy)-2-pyrazinyl)-1H-indazol-5-yl)benzamide]	0.027	0.026	0.022
Nc1ccc(OC(F)(F)F)c(-c2ccc3[nH]nc(-c4cncc(N5CCC(N)CC5)n4)c3c2)c1 [Example 107, 1-(6-(5-(5-amino-2-(trifluoromethoxy)phenyl)-1H-indazol-3-yl)-2-pyrazinyl)-4-piperidinamine]	0.03	0.192	0.067
3-(6-(4-amino-1-piperidinyl)-2-pyrazinyl)-N-phenyl-1H-indole-5-carboxamide [Example 240]	0.254	> 3	0.719
Fc1cccc(F)c1-c1ccc2[nH]cc(-c3cncc(O[C@H]4CCCNC4)n3)c2c1 [Example 214, 5-(2,6-difluorophenyl)-3-(6-((3S)-3-piperidinyloxy)-2-pyrazinyl)-1H-indole]	0.045	0.515	0.083
NC1CCN(c2cncc(-c3n[nH]c4ccc(-c5ccnc6cc(OC(F)(F)F)ccc56)cc34)n2)CC1 [Example 111, 1-(6-(5-(7-(trifluoromethoxy)-4-quinolinyl)-1H-indazol-3-yl)-2-pyrazinyl)-4-piperidinamine]	0.029	0.292	0.087
CC(C)Oc1cncc(-c2ccc3[nH]cc(-c4cccc(N)n4)c3c2)n1 [Example 217, 6-(5-(6-(1-methylethoxy)-2-pyrazinyl)-1H-indol-3-yl)-2-pyridinamine]	0.765	2.35	0.156
NC1CCN(c2cncc(-c3c[nH]c4ccc(C(=O)O)cc34)n2)CC1 [Example 237, 3-(6-(4-aminopiperidin-1-yl)pyrazin-2-yl)-1H-indole-5-carboxylic acid]	0.195	0.325	0.122
COc1cnc(-c2c[nH]c3ccc(-c4cncc(OC(C)C)n4)cc23)cn1 [Example 222, 3-(5-methoxy-2-pyrazinyl)-5-(6-(1-methylethoxy)-2-pyrazinyl)-1H-indole]	0.732	> 3	0.445
FC(F)(F)Oc1cccc(-c2ccc3[nH]nc(-c4cncc(O[C@@H]5CCCNC5)n4)c3c2)c1 [Example 150, 3-(6-((3R)-3-piperidinyloxy)-2-pyrazinyl)-5-(3-(trifluoromethoxy)phenyl)-1H-indazole]	0.035	0.214	0.029
CC(C)Oc1cncc(-c2ccc3[nH]cc(-c4cccc(N5CCOCC5)n4)c3c2)n1 [Example 220, 5-(6-(1-methylethoxy)-2-pyrazinyl)-3-(6-(4-morpholinyl)-2-pyridinyl)-1H-indole]	0.494	> 3	0.329
c1cc2[nH]nc(-c3cncc(O[C@@H]4CCCNC4)n3)c2cc1C1CCOCC1 [Example 151, 3-(6-((3R)-3-piperidinyloxy)-2-pyrazinyl)-5-(tetrahydro-2H-pyran-4-yl)-1H-indazole]	0.027	0.118	0.129
CCC(=O)Nc1ccc2[nH]cc(-c3cncc(N4CCC(N)CC4)n3)c2c1 [Example 234, N-(3-(6-(4-aminopiperidin-1-yl)pyrazin-2-yl)-1H-indol-5-yl)propionamide]	0.161	2.57	0.348
Fc1cccc(F)c1-c1ccc2[nH]cc(-c3nccc(NC4CCNCC4)n3)c2c1 [Example 210, 2-(5-(2,6-difluorophenyl)-1H-indol-3-yl)-N-4-piperidinyl-4-pyrimidinamine]	0.12	0.424	0.091
CC(C)NC(=O)c1ccc2[nH]cc(-c3cncc(N4CCC(N)CC4)n3)c2c1 [Example 239, 3-(6-(4-aminopiperidin-1-yl)pyrazin-2-yl)-N-isopropyl-1H-indole-5-carboxamide]	0.166	> 3	0.347
c1cc(-c2ccc3[nH]nc(-c4cncc(O[C@@H]5CCCNC5)n4)c3c2)nc(C2CC2)c1 [Example 136, 5-(6-cyclopropyl-2-pyridinyl)-3-(6-((3R)-3-piperidinyloxy)-2-pyrazinyl)-1H-indazole]	0.03	0.164	0.015
CC(C)Oc1cncc(-c2ccc3[nH]cc(-c4cccc(OC(C)C)n4)c3c2)n1 [Example 226, 5-(6-(1-methylethoxy)-2-pyrazinyl)-3-(6-(1-methylethoxy)-2-pyridinyl)-1H-indole]	2.2	> 3	0.616
3-(6-(4-amino-1-piperidinyl)-2-pyrazinyl)-N-benzyl-1H-indole-5-carboxamide [Example 241]	0.376	2.48	0.538
CC(C)Oc1cncc(-c2ccc3[nH]cc(-c4cccc(-n5cccn5)n4)c3c2)n1 [Example 223, 5-(6-(1-methylethoxy)-2-pyrazinyl)-3-(6-(1H-pyrazol-1-yl)-2-pyridinyl)-1H-indole]	0.142	> 3	0.15
CC(C)Nc1nccc(-c2n[nH]c3ccc(-c4c(F)cccc4F)cc23)n1 [Example 193, 4-(5-(2,6-difluorophenyl)-1H-indazol-3-yl)-N-(1-methylethyl)-2-pyrimidinamine]	0.161	1.34	0.143
CNc1cncc(-c2n[nH]c3ccc(-c4c(F)cccc4F)cc23)n1 [Example 179, 6-(5-(2,6-difluorophenyl)-1H-indazol-3-yl)-N-methyl-2-pyrazinamine]	0.168	0.858	0.122
Fc1cccc(F)c1-c1ccc2[nH]nc(-c3cncc(O[C@@H]4CNCC[C@H]4F)n3)c2c1 (single isomer, unassigned) [Example 18, 5-(2,6-difluorophenyl)-3-(6-(trans-4-fluoropiperidin-3-yloxy)pyrazin-2-yl)-1H-indazole]	0.075	0.264	0.034
